Where a name gives a salt, the structure may show the parent alone. Peptide text beside a SMILES is read from it.

The values that follow come from patent publication US8703713B2, “Combination therapy for pancreatic cancer using an antigenic peptide and chemotherapeutic agent” (Onco Therapy Science, Inc., priority 2007, dated 2014).

Data set [1] is described as follows: Preliminary test administration of the peptide. The format is in vivo, human. The note with it: 10 mg of the peptide subcutaneously before first vaccine administration, monitoring 30 minutes, all cases. How it is done:
For the purpose of avoiding unanticipated adverse events, such as anaphylactic shock, 10 mg of the peptide is subcutaneously administered as a preliminary test administration before the first vaccine administration to a site other than the site of the actual administration, and monitoring is carried out for 30 minutes. If a Grade 3 or higher local reaction or systemic adverse event could not be observed, the actual administration was carried out.

For data set [2], the system named is unresectable pancreatic cancer. The conditions noted are these: cited from earlier work.
[3] abbreviates: standard therapy against unresectable pancreatic cancer.

With `CC[C@H](C)[C@H](NC(=O)[C@H](CCCNC(=N)N)NC(=O)[C@H](CC(N)=O)NC(=O)CNC(=O)[C@H](CC(=O)O)NC(=O)[C@@H]1CCCN1C(=O)[C@@H](NC(=O)[C@H](Cc1ccccc1)NC(=O)[C@@H](N)CCCNC(=N)N)C(C)C)C(=O)O` [VEGFR2-169, RFVPDGNRI] (H-RFVPDGNRI-OH), in data set [1], the “local adverse event and systemic adverse event” value is “not observed in any of the cases”.

Regarding `Nc1ccn([C@@H]2O[C@H](CO)[C@@H](O)C2(F)F)c(=O)n1` [gemcitabine, 2′-deoxy-2′,2′-difluorocytidine monohydrochloride (b-isomer)], the “Evident tumor reducing effect (Objective Response)” value in data set [2] (gemcitabine alone, data obtained so far) is listed as 10%. In data set [2] (gemcitabine alone, data obtained so far, listed as GEM alone), the “Disease control rate (SD or higher)” value is on record as 45-48%. In addition, in data set [2] (setting [3]), the median survival period is listed as 5.7 months and the one-year survival rate is recorded as 18%.
